We go through three compounds from ChEMBL document CHEMBL1145911, “Rational design and synthesis of androgen receptor-targeted nonsteroidal anti-androgen ligands for the tumor-specific delivery of a doxorubicin-formaldehyde conjugate” (J Med Chem, 2003).

For this test, the target named is T1, Androgen receptor (Homo sapiens, UniProt P10275).
T1 sequence (P10275 whole entry): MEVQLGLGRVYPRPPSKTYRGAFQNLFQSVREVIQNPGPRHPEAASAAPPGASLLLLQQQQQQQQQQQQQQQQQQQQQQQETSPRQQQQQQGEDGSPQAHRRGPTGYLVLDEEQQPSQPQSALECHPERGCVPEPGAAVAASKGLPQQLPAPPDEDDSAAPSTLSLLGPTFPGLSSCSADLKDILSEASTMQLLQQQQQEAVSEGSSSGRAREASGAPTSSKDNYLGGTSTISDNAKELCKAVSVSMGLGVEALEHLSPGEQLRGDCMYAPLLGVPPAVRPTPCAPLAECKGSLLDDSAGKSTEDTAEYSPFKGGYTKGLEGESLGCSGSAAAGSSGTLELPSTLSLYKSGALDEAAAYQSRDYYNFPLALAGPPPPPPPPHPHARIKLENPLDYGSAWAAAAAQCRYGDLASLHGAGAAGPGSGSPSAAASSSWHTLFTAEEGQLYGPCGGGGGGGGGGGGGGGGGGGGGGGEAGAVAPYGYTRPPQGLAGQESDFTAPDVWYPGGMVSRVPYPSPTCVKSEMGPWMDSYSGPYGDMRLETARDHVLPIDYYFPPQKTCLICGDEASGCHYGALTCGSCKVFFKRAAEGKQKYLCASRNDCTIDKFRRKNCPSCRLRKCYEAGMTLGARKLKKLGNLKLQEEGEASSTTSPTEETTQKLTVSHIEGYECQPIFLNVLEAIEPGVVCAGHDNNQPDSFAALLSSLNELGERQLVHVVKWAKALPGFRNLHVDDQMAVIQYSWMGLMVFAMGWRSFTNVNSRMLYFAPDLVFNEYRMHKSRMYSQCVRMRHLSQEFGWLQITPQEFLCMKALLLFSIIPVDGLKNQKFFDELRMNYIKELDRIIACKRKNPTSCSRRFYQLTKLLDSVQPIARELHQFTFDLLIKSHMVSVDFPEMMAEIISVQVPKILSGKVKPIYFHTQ
Briefly: biochemical.
For the compound `CC1(C)C(=O)N(c2ccc(C#N)c(C(F)(F)F)c2)C(=O)N1CCCCN1CCN(CCOCc2ccc(O)c(C(N)=O)c2)CC1`, the IC50 is over 1000 nM.
As for `COc1cccc2c1C(=O)c1c(O)c3c(c(O)c1C2=O)C[C@@](O)(C(=O)CO)C[C@@H]3OC1C[C@H](NCNC(=O)c2cc(COCC#CCN3C(=O)N(c4ccc(C#N)c(C(F)(F)F)c4)C(=O)C3(C)C)ccc2O)[C@H](O)[C@H](C)O1` (stereo partly drawn), the figure is 90 nM.
`CC1(C)C(=O)N(c2ccc(C#N)c(C(F)(F)F)c2)C(=O)N1CCOCCN1CCN(CCOCc2ccc(O)c(C(N)=O)c2)CC1` yielded an IC50 of 346 nM.
